From patent US6495529B1 (Warner-Lambert Company, priority 1998, dated 2002)

How the values were obtained:
[1] = target: α2-receptors; assay: ALPHA-2 binding, p-125Iodoclonidine, canine brain (frontal cortex) membranes; parameters: species or system dog
Protocol: Membranes of mongrel dogs were harvested from the canine frontal cortex and prepared as described for lung except that the final membrane protein concentration was adjusted to 0.5 mg/ml.
Nonspecific binding was determined in separate incubations in the presence of 10 μM phentolamine. The final concentration of p-iodoclonidine was 44-45 pM in competition studies and between 50 pM and 10 nM in saturation experiments. Bound and free […] were separated and the bound quantitated as described above for the ICYP assays.
All data were analyzed with the aid of microcomputer nonlinear curve fitting programs (PRISM 2.0, Graphpad Software, San Diego Calif.).
The receptors resident in each of the three membrane preparations were evaluated by standard saturation analysis following the addition of increasing concentrations of the appropriate radioligand.
The radio ligand added for subsequent α2-displacement assays was adjusted to evaluate only the high affinity receptor. Contributions from p-iodoclonidine binding to imidazoline receptors in the α2-displacement assay were evaluated with epinephrine.

[2] = tested on: histamine-challenged rats; assay: Nasal airway pressure in histamine-challenged rats; conditions: for Nasal airway pressure, Post Drug: 100% dose i.v. two minutes after histamine; for Nasal airway pressure, Post Histamine: after intranasal histamine 50 mM 0.02 ml/nostril, before drug; for Nasal airway pressure, Control: before histamine and drug; for Mean decrease in nasal airway pressure, % Change: post drug vs post histamine
[3] = tested on: Swiss-Webster mice; conditions: mice pretreated with 0.01, 0.1 or 1.0 mg/kg triprolidine

| Compound | Ki [1] | IC50 ([1]; Table 4, no unit in table, IC50 defined in μM, read-out: Alpha-2 IC50) | Nasal airway pressure, Post Drug [2] | Nasal airway pressure, Post Histamine [2] | Nasal airway pressure, Control [2] | Mean decrease in nasal airway pressure, % Change [2] | modification of stimulant or depressant effects by triprolidine pretreatment [3] |
| --- | --- | --- | --- | --- | --- | --- | --- |
| CN[C@@H](C)[C@H](O)c1ccccc1 [(−)-ephedrine] | […] | […] | 6.4 mm water | 8.2 ± 0.7 mm water | 6.7 ± 0.4 mm water | −21.8% | – |
| CNC[C@H](O)c1cccc(O)c1 [(−)-phenylephrine] | – | – | 10.5 mm water | 13.2 ± 2.1 mm water | 7.5 ± 0.5 mm water | −22.3% | did not show significant modification of stimulant or depressant effects |
